From US6106822A, “Hormone and growth factor phosphoglycokine mimetics from mycobacterium” (University College of London, priority 1995, dated 2000)

Tests used:
isolated adipocytes = assay: lipogenesis assay (incorporation of labelled glucose into lipids of isolated adipocytes); assay type: cell-based, rat; conditions: 10 μl of stock solution in final volume of 1.25 ml
Experimental: The activation of lipogenesis is monitored by measuring the incorporation of uniformly labelled glucose into lipids of isolated adipocytes as described by Rodbell in J. Biol. Chem. (1964) 239, 375-380.
For the lipogenesis assay, 10 μl of the stock solution is added to a final volume of 1.25 ml.

[1] = infusion; normal rats given a glucose load or streptozotocin-treated rats; cited from earlier work

| Compound | Lipogensis (% stimulation) (isolated adipocytes) | activity of glycogen synthase I [1] | plasma glucose [1] |
| --- | --- | --- | --- |
| Insulin | 273% | – | – |
| OC1C(O)C(O)C(O)C(O)C1O (stereo not drawn) [chiro-inositol] | – | enhanced activity of glycogen synthase I | decreased plasma glucose |
